The source of these data is patent publication US20200206212A1 (Celgene Corporation, priority 2018, published 2020).

Where only a bound is given, the exact number is not on record here.

For series [1], the system named is acute myeloid leukemia (AML) at relapse. The following applies: administered alone; cited from earlier work.
The format of series [2] is physicochemical. From the text: “Compound 1” or “API” in the Examples herein refers to polymorph Form C of 2-(4-chlorophenyl)-N-((2-(2,6-dioxopiperidin-3-yl)-1-oxoisoindolin-5-yl)methyl)-2,2-difluoroacetamide. […] Other forms of Compound 1, including Form A, Form B, Form D, Form F and amorphous form can be used in the formulations provided herein.
Series [3] can be described thus: physchem. In kind it is physicochemical. Conditions: for solubility: organic solvent or mixture, thermodynamic from solid. Here is the method: FA/AcOH mixtures ranging from 100% FA to 70%/30% FA/AcOH in decrements of 10% were used.
Solutions of FA/AcOH at ratios described in Table 39 were used. […] Samples were taken at each time point (4, 24, and 48 h) and assayed (36 total). Samples were spun down briefly (500 g, 4 min) to precipitate all solids and 25 μL of solution were taken for assay.

With “CT-011: anti-PD-1 antibody, a humanized antibody”, in series [1], the “response in treating acute myeloid leukemia (AML) at relapse” value is “failed to show response”.
As usually defined, the solubility is the dissolved amount per volume that the medium holds. Regarding `O=C1CCC(N2Cc3cc(CNC(=O)C(F)(F)c4ccc(Cl)cc4)ccc3C2=O)C(=O)N1` (centres unmarked) [Compound 1, 2-(4-chlorophenyl)-N-((2-(2,6-dioxopiperidin-3-yl)-1-oxoisoindolin-5-yl)methyl)-2,2-difluoroacetamide], in series [2], the Hygroscopicity result is recorded as “Not hygroscopic”, the “Solid State Stability” value was “DS is physically stable under all storage conditions” and the major degradation pathway result is “Hydrolysis”. In addition, the “Solution Stability” value in series [2] (pH 5) is “not stable in solution at pH of 5.0 or above”. The “solubility across FA/AcOH mixtures” value in series [3] was “maximized in 100% FA”. In addition, the solubility in series [3] (40 °C) is more than 250 mg/mL. In addition, the solubility in series [3] (60 °C) is more than 250 mg/mL.
